Where “and” joins values, the source holds several entries; their conditions need not be identical. Identical values can stand only once. Like-named read-outs stand apart in the source and are kept apart here.
How the values were obtained:
[1] = system: human cervical carcinoma (HeLa) cells; assay: (Photo-)cytotoxicity on 2D cell monolayers, HeLa; type: cell-based; settings: for IC50: 1-3 as chloride salts; for PI (480 nm): dark vs 480 nm; for PI (540 nm): dark vs 540 nm
Description: (§1) A total of 4 × 10^3 cells were seeded on 96-well plates and allowed to adhere overnight. The cells were treated with increasing concentrations of the sample diluted in cell media achieving a total volume of 200 μL. The cells were incubated with the sample for 8 h and, after this time, the medium refreshed. To study the phototoxic effect of the sample, the cells were exposed to 480 nm (spectral half-width: 20 nm, 10 min, 5.2 mW cm^−2, 3.1 J cm^−2) or 540 nm (spectral half-width: 30 nm, 40 min, 4.0 mW cm^−2, 9.5 J cm^−2) light using an Atlas Photonics LUMOS BIO irradiator. To study the dark cytotoxicity of the sample, the cells were not irradiated and the medium exchanged. The cells were grown for an additional 40 h at 37 °C. After this time, the medium was replaced with fresh medium containing resazurin with a final concentration of 0.2 mg mL^−1. The cells were incubated for 4 h and the amount of the fluorescent product resorufin determined (λex = 540 nm, λem = 590 nm) with a SpectraMax M2 Microplate Reader (Molecular Devices). The obtained data was analyzed with the GraphPad Prism software.

[2] = system: human glioblastoma astrocytoma (U373) cells;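 note: Resazurin-to-resorufin fluorescence viability readout, 8 h compound exposure then medium change, light dose 3.1 J cm^−2 at 480 nm or 9.5 J cm^−2 at 540 nm, analysed 40 h later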
Description: as §1

Excited state lifetime = type: physicochemical; settings: for τ air, excited state lifetime: air saturated acetonitrile; for τ degassed, excited state lifetime: degassed acetonitrile
Description: The sample was prepared in an air saturated as well as a degassed acetonitrile solution with an absorption of 0.2 at 355 nm. The sample was irradiated at 355 nm with a NT342B Nd-YAG pumped optical parametric oscillator (Ekspla). The emission was focused at right angle to the excitation pathway and directed to a Princeton Instruments Acton SP-2300i monochromator. The signal was detected with a R928 photomultiplier tube (Hamamatsu).

[3] = system: mouse colon carcinoma (CT-26) cells
Description: as §1

[4] = system: noncancerous retinal pigment epithelium (RPE-1) cells
Description: as §1

[5] = Distribution coefficient (shake-flask, octanol/PBS); type: physicochemical; settings: ICP-MS
Description: Using the “shake-flask” method, the distribution coefficient between the PBS and octanol phase of the sample was determined. The PBS and octanol phases were previously saturated in each other. The sample was dissolved in the phase, which is dissolving best the compound. This solution was added to an equal volume of the other phase and mixed at 190 rpm overnight with a sample mixer. Following this, the solutions were equilibrated for 4 h. The phases were carefully separated from each other. The amount of the sample in each phase was determined by ICP-MS. The evaluation was repeated three times and the ratio between the organic and aqueous phase determined.

[6] = Emission and luminescence quantum yield; type: physicochemical; settings: acetonitrile
Description: The absorption spectra of the sample was measured with a SpectraMax M2 Spectrometer (Molecular Devices). For the measurements of the emission, the sample was irradiated at 355 nm with a NT342B Nd-YAG pumped optical parametric oscillator (Ekspla). The emission was focused at right angle to the excitation pathway and directed to a Princeton Instruments Acton SP-2300i monochromator. The signal was detected with a XPI-Max 4 CCD camera (Princeton Instruments).
The sample was prepared in an acetonitrile solution with an absorption of 0.1 at 355 nm. The sample was irradiated at 355 nm with a NT342B Nd-YAG pumped optical parametric oscillator (Ekspla). The emission was focused at right angle to the excitation pathway and directed to a Princeton Instruments Acton SP-2300i monochromator. The signal was detected with a XPI-Max 4 CCD camera (Princeton Instruments). The luminescence quantum yields were determined by comparison with the reference [Ru(2,2′-bipyridine)3]Cl2 in acetonitrile (Φem = 5.9%)[58] applying the following formula:2 Φem,sample=Φem,reference×Freference/Fsample×Isample/Ireference×nsample/nreference^2, 3 F=1−10^-A. Φem = luminescence quantum yield, F = fraction of light absorbed, I = integrated emission intensities, n = refractive index, A = absorbance of the sample at irradiation wavelength.

[7] = system: mouse colon carcinoma (CT-26) cells; assay: (Photo-)cytotoxicity on 2D cell monolayers, CT-26; settings: for PI (480 nm): CT-26, dark vs 480 nm; for PI (540 nm): CT-26, dark vs 540 nm; for IC50: 1-3 as chloride salts
Description: as §1

[8] = system: human glioblastoma astrocytoma (U373) cells; assay: (Photo-)cytotoxicity on 2D cell monolayers, U373; settings: for PI (480 nm): U373, dark vs 480 nm; for PI (540 nm): U373, dark vs 540 nm; for IC50: 1-3 as chloride salts;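 for all read-outs here: Resazurin-to-resorufin fluorescence viability readout, 8 h compound exposure then medium change, light dose 3.1 J cm^−2 at 480 nm or 9.5 J cm^−2 at 540 nm, analysed 40 h later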
Description: as §1

[9] = Two-photon absorption cross section; type: physicochemical; settings: dichloromethane
Description: The two-photon absorption cross section spectra of the sample was determined upon direction comparison to Rhodamine B. The sample was irradiated with an OpoletteTM 355II (pulse width ≤ 100 fs, 80 MHz repetition rate, Spectra Physics Inc.) laser. The experimental excitation and detection conditions were conducted with negligible reabsorption processes, which could affect two-photon absorption measurements. The quadratic dependence of the two-photon induced luminescence intensity on the excitation power was verified at an excitation wavelength of 800 nm. The two-photon absorption cross section was calculated using the following equation:1 σ2,sample=σ2,reference×Φreference×creference×Isample×nsample/Φsample×csample×Ireference×nreference,
σ2 = two-photon cross section, Φ = luminescence quantum yield, c = concentration, I = integrated luminescence intensity, n = refractive index

[10] = Singlet oxygen quantum yield, direct evaluation (1O2 phosphorescence); type: physicochemical
Description: Direct evaluation: the sample was prepared in an air-saturated acetonitrile or deuterated water solution with an absorption of 0.2 at 450 nm. The sample was irradiated at 450 nm with a mounted M450LP1 LED (Thorlabs), whose light was focused with aspheric condenser lenses. Using a T-Cube LED Driver (Thorlabs), the intensity of the irradiation was varied and monitored with an optical power and energy meter. The emission was focused at right angle to the excitation pathway and directed to a Princeton Instruments Acton SP-2300i monochromator. To cut off light at wavelengths shorter than 850 nm, a longpass glass filter was placed in front of the monochromator entrance slit. The signal was detected with an EO-817L IR-sensitive liquid-nitrogen cooled germanium diode detector (North Coast Scientific Corp.). The luminescence signal, centered at 1270 nm, was measured from 1100 to 1400 nm. The obtained data were analyzed upon plotting the integrated luminescence peaks against the percentage of the irradiation intensity. The slope of the linear regression was calculated and compared with the reference Rose Bengal (Φ = 76%)[59]. The absorption of the sample was corrected with an absorption correction factor. The singlet oxygen quantum yields were calculated using the following formula:4 Φsample=Φreference×Ssample/Sreference×Ireference/Isample, 5 I=I0×1−10^-A.
Φ = singlet oxygen quantum yield, S = slope of the linear regression of the plot of the areas of the singlet oxygen luminescence peaks against the irradiation intensity, I = absorption correction factor, I0 = light intensity of the irradiation source, and A = absorption of the sample at irradiation wavelength.

[11] = Photostability (absorption spectra upon irradiation); type: physicochemical; settings: 450 nm, 0 to 10 min (13.2 J cm^−2), air-saturated acetonitrile
Description: The sample was prepared in an air-saturated acetonitrile solution. Using a Atlas Photonics LUMOS BIO irradiator, the sample was constantly irradiated at 450 nm in time intervals from 0 to 10 min (13.2 J cm^−2). The absorption spectra from 350 to 700 nm was monitored with a SpectraMax M2 Microplate Reader (Molecular Devices) at each time interval. As positive and negative controls, respectively, [Ru(2,2′-bipyridine)3]Cl2 and Protoporphyrin IX were used.

[12] = 480 nm, read-out: IC50 480 nm (10 min, 3.1 J cm-2)
[13] = 540 nm, read-out: IC50 540 nm (40 min, 9.5 J cm-2)
[14] = read-out: IC50 540 nm (40 min, 9.5 J cm-2), CT-26, 540 nm
[15] = read-out: IC50 dark, CT-26, dark
[16] = read-out: IC50 480 nm (10 min, 3.1 J cm-2), U373, 480 nm
[17] = read-out: IC50 dark, U373, dark

Row | Structure (SMILES) | IC50 [1, 12] [µM] | IC50 [1, 13] [µM] | PI (480 nm) [1] | PI (540 nm) [1] | IC50 ([1]; dark, read-out: IC50 dark) [µM] | IC50 [2] [µM] | τ air, excited state lifetime (Excited state lifetime) [ns] | τ degassed, excited state lifetime (Excited state lifetime) [ns] | IC50 [3] [µM] | IC50 [4] [µM] | logD (octanol/PBS) [5] | Φem, luminescence quantum yield [6] [%] | λem, emission maximum [6] [nm] | PI (480 nm) [7] | PI (540 nm) [7] | IC50 [7, 14] [µM] | IC50 [7, 15] [µM] | PI (480 nm) [8] | PI (540 nm) [8] | IC50 [8, 16] [µM] | other results
1 | C(=C\c1ccnc(-c2cc(/C=C/c3ccccc3)ccn2)c1)/c1ccccc1.C(=C\c1ccnc(-c2cc(/C=C/c3ccccc3)ccn2)c1)/c1ccccc1.C(=C\c1ccnc(-c2cc(/C=C/c3ccccc3)ccn2)c1)/c1ccccc1.F[P-](F)(F)(F)(F)F.F[P-](F)(F)(F)(F)F.[Ru+2] [compound 1] | 29.5 | 48.7 | > 3.4 | > 2.1 | > 100 | 83.1 | 86 | 385 | 20.3 | 30.9 | +2.6 ± 0.4 | 1.9 | 677 | > 4.9 | > 3.0 | 33.4 | > 100 | > 1.9 | > 1.2 | 51.7 | IC50 [8, 17]: > 100 µM; σ2, 2P absorption cross section [9]: 147 GM; Singlet oxygen quantum yield, Direct 450 nm CH3CN [10]: 65%; photostability (change of absorption spectra upon irradiation) [11]: no significant differences in the absorption spectra
2 | CN(C)c1ccc(/C=C/c2ccnc(-c3cc(/C=C/c4ccc(N(C)C)cc4)ccn3)c2)cc1.CN(C)c1ccc(/C=C/c2ccnc(-c3cc(/C=C/c4ccc(N(C)C)cc4)ccn3)c2)cc1.CN(C)c1ccc(/C=C/c2ccnc(-c3cc(/C=C/c4ccc(N(C)C)cc4)ccn3)c2)cc1.F[P-](F)(F)(F)(F)F.F[P-](F)(F)(F)(F)F.[Ru+2] [compound 2, [Ru((E,E′)-4,4′-Bis[p-(N,N-dimethylamino)styryl]-2,2′-bipyridine)3][PF6]2] | 29.4 | 52.3 | > 3.4 | > 1.9 | > 100 | 61.4 | 48 | 222 | 42.6 | 38.4 | +2.7 ± 0.4 | > 0.1 | 709 | > 2.3 | > 1.6 | 62.5 | > 100 | > 2.0 | > 1.6 | 49.1 | IC50 [8, 17]: > 100 µM; σ2, 2P absorption cross section [9]: 2175 GM; Singlet oxygen quantum yield, Direct 450 nm CH3CN [10]: 18%; photostability (change of absorption spectra upon irradiation) [11]: small changes in the absorption spectra
3 | COc1ccc(/C=C/c2ccnc(-c3cc(/C=C/c4ccc(OC)cc4)ccn3)c2)cc1.F[P-](F)(F)(F)(F)F.F[P-](F)(F)(F)(F)F.[Ru+2].c1ccc(-c2ccccn2)nc1.c1ccc(-c2ccccn2)nc1 [compound 7, [Ru(2,2′-bipyridine)2((E,E′)-4,4′-Bis[p-methoxystyryl]-2,2′-bipyridine)][PF6]2] | 1.2 | 1.5 | > 83.3 | > 66.7 | > 100 | 13.5 | 96 | 542 | 0.7 ± 0.4 | 3.1 | +0.5 ± 0.2 | 2.8 | 664 | > 143 and > 142.9 | > 111.1 | 0.9 ± 0.3 | > 100 | > 9.5 | > 7.4 | 10.5 | IC50 [8, 17]: > 100 µM; Singlet oxygen quantum yield, Direct 450 nm CH3CN [10]: 75%; photostability (change of absorption spectra upon irradiation) [11]: no significant differences in the absorption spectra

Source: paper PMC7320011, “Rationally designed ruthenium complexes for 1- and 2-photon photodynamic therapy” (Nature Communications, 2020)
